Measured values from paper PMC3793860, “A role for the vesicle-associated tubulin binding protein ARL6 (BBS3) in flagellum extension in Trypanosoma brucei” (Biochimica et Biophysica Acta, 2012).

Target: T1, TbARL6 (Trypanosoma brucei, UniProt Q57UH8)
T1 construct: gene Tb08.5H5.790; N-terminal His-tagged recombinant TbARL6 (nucleotides 1–570 of the ORF, Tb927.8.5060), expressed in E. coli
T1 sequence (Q57UH8 1-189): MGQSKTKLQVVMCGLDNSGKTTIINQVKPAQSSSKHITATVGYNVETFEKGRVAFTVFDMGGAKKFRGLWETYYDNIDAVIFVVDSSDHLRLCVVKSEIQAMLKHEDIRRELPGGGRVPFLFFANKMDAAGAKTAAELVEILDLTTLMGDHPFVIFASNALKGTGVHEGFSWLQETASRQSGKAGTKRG
Assay: mant fluorescence titration, one-site non-linear regression; displacement kinetics
Format: binding

SMILES | Kd [µM]
CNc1ccccc1C(=O)O[C@H]1[C@@H](O)[C@H](n2cnc3c(=O)[nH]c(N)nc32)O[C@@H]1COP(=O)(O)OP(=O)(O)O [mGDP, mantGDP] | 4.35
CNc1ccccc1C(=O)O[C@H]1[C@@H](O)[C@H](n2cnc3c(=O)[nH]c(N)nc32)O[C@@H]1COP(=O)(O)OP(=O)(O)OP(=O)(O)O [mGTP, mantGTP] | 13.7
